We go through one molecule from article PMC4620497 (Scientific Reports, 2015).

The target of assay [1] is T1, ABL1(E255K)-phosphorylated (Homo sapiens, UniProt P00519, E255K).
T1 construct: purchased DiscoveRx KINOMEscan (Ambit Biosciences)
Nature of the assay: KINOMEscan panel screen. Format: binding. Particulars: read-out: Percent Control(%).

For assay [2], the target named is T2, ABL1(F317L)-phosphorylated (Homo sapiens, UniProt P00519, F317L).
T2 construct: purchased DiscoveRx KINOMEscan (Ambit Biosciences)
Kind of assay: KINOMEscan panel screen. Particulars: read-out: Percent Control(%). The assay is classed as binding.

For assay [3], the target named is T3, ABL1(H396P)-nonphosphorylated (Homo sapiens, UniProt P00519, H396P).
T3 construct: purchased DiscoveRx KINOMEscan (Ambit Biosciences)
Nature of the assay: KINOMEscan panel screen. The conditions noted are these: read-out: Percent Control(%). Format: binding.

The target in assay [4] is T4, ABL1(Q252H)-nonphosphorylated (Homo sapiens, UniProt P00519, Q252H).
T4 construct: purchased DiscoveRx KINOMEscan (Ambit Biosciences)
Kind of assay: KINOMEscan panel screen. Format: binding. Particulars: read-out: Percent Control(%).

Another assay has as its target T5, AXL (Homo sapiens, UniProt P30530).
T5 construct: purchased DiscoveRx KINOMEscan (Ambit Biosciences)
Nature of the assay: KINOMEscan panel screen. Particulars: read-out: Percent Control(%). The assay is classed as binding.

The target of a further assay is T6, CDK11 (Homo sapiens, UniProt Q9BWU1).
T6 construct: purchased DiscoveRx KINOMEscan (Ambit Biosciences)
Kind of assay: KINOMEscan panel screen. Format: binding. Particulars: read-out: Percent Control(%).

The next assay addresses T7, LATS2 (Homo sapiens, UniProt Q9NRM7).
T7 construct: purchased DiscoveRx KINOMEscan (Ambit Biosciences)
Kind of assay: KINOMEscan panel screen. The assay is classed as binding. Particulars: read-out: Percent Control(%).

The next assay addresses LCK (Homo sapiens, UniProt P06239). Kind of assay: KINOMEscan panel screen. Format: binding. Particulars: read-out: Percent Control(%).
In the next assay the target is T8, p38-gamma (Homo sapiens, UniProt P53778).
T8 construct: purchased DiscoveRx KINOMEscan (Ambit Biosciences)
Nature of the assay: KINOMEscan panel screen. The assay is classed as binding. Particulars: read-out: Percent Control(%).

A further assay addresses T9, RAF1 (Homo sapiens, UniProt P04049).
T9 construct: purchased DiscoveRx KINOMEscan (Ambit Biosciences)
Nature of the assay: KINOMEscan panel screen. Format: binding. Particulars: read-out: Percent Control(%).

The target in another assay is T10, RIPK4 (Homo sapiens, UniProt P57078).
T10 construct: purchased DiscoveRx KINOMEscan (Ambit Biosciences)
Nature of the assay: KINOMEscan panel screen. Format: binding. Particulars: read-out: Percent Control(%).

The target in the next assay is T11, CAMK4 (Homo sapiens, UniProt Q16566).
T11 construct: purchased DiscoveRx KINOMEscan (Ambit Biosciences)
T11 sequence (Q16566 1-473): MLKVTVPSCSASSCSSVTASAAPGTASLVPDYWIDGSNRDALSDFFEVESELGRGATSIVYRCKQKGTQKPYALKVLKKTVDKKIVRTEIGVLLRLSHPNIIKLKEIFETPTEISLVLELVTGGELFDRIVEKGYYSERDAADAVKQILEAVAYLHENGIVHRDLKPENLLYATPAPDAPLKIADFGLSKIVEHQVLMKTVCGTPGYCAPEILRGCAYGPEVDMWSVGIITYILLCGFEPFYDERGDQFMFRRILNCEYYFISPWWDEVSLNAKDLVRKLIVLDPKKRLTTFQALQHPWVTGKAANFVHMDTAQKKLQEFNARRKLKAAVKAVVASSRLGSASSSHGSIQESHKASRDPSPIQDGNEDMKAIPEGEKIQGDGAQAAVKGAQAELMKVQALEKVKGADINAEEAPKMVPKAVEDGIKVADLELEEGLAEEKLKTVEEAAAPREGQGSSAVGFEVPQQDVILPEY
Kind of assay: KINOMEscan kinase binding assay (Kd). The conditions noted are these: Table S1. The source says:
(§1) In vitro KINOMEscan kinase binding assays (Ambit Biosciences) were employed to determine the binding affinity (Kd) of compounds[41][42].
(§2) compound 1. The y have very similar spectrum of activity in enz ymatic and cellular
(§3) levels. Both of them have the ability to inhibit Wnt/β -catenin si gnalin g. However, in […]

Another assay concerns the target T12, CHEK1 (Homo sapiens, UniProt O14757).
T12 construct: purchased DiscoveRx KINOMEscan (Ambit Biosciences)
T12 sequence (O14757 1-476): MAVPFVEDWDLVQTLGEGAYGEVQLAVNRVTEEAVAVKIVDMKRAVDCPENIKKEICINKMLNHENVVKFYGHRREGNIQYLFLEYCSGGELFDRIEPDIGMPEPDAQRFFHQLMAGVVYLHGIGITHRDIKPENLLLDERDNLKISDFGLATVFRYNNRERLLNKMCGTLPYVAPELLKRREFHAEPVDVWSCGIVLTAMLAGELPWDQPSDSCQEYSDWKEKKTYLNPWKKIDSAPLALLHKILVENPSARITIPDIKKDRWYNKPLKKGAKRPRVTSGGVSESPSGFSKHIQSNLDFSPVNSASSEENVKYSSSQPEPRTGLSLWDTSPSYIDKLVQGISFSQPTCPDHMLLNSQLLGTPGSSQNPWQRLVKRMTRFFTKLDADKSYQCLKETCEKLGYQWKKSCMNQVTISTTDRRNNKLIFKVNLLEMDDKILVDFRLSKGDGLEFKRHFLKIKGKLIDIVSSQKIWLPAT
Nature of the assay: KINOMEscan kinase binding assay (Kd). The conditions noted are these: Table S1.
Description: as §1, §2, §3

The target in a further assay is T13, ERBB4 (Homo sapiens, UniProt Q15303).
T13 construct: purchased DiscoveRx KINOMEscan (Ambit Biosciences)
Nature of the assay: KINOMEscan kinase binding assay (Kd). Particulars: Table S1.
Description: as §1, §2, §3

A further assay deals with ERK. Nature of the assay: KINOMEscan kinase binding assay (Kd). The conditions noted are these: Table S1.
Description: as §1, §2, §3

A further assay concerns the target ERN1 (Homo sapiens, UniProt O75460). Kind of assay: KINOMEscan kinase binding assay (Kd). Particulars: Table S1.
Description: as §1, §2, §3

A further assay has as its target T14, IGF1R (Homo sapiens, UniProt P08069).
T14 construct: DNA tag (qPCR read-out); purchased Ambit Biosciences (KINOMEscan service)
Nature of the assay: KINOMEscan kinase binding assay (Kd). Particulars: Table S1.
Description: as §1, §2, §3

The next assay has as its target T15, PAK2 (Homo sapiens, UniProt Q13177).
T15 construct: purchased DiscoveRx KINOMEscan (Ambit Biosciences)
Nature of the assay: KINOMEscan kinase binding assay (Kd). Particulars: Table S1.
Description: as §1, §2, §3

pKd: −log10 of the molar value.

T6 sequence (Q9BWU1 whole entry): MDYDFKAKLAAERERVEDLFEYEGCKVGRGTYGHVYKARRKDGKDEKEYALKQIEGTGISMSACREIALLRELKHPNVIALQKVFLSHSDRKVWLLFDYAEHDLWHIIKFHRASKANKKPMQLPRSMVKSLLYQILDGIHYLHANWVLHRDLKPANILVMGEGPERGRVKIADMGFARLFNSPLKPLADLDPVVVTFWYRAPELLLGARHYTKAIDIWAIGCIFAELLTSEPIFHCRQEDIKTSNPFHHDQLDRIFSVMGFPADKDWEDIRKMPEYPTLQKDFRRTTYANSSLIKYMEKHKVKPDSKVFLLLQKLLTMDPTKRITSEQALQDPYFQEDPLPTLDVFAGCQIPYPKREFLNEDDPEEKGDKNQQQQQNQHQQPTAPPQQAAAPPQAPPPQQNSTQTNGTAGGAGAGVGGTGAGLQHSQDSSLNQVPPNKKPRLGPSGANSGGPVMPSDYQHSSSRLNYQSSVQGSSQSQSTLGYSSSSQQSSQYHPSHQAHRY
T9 sequence (P04049 whole entry): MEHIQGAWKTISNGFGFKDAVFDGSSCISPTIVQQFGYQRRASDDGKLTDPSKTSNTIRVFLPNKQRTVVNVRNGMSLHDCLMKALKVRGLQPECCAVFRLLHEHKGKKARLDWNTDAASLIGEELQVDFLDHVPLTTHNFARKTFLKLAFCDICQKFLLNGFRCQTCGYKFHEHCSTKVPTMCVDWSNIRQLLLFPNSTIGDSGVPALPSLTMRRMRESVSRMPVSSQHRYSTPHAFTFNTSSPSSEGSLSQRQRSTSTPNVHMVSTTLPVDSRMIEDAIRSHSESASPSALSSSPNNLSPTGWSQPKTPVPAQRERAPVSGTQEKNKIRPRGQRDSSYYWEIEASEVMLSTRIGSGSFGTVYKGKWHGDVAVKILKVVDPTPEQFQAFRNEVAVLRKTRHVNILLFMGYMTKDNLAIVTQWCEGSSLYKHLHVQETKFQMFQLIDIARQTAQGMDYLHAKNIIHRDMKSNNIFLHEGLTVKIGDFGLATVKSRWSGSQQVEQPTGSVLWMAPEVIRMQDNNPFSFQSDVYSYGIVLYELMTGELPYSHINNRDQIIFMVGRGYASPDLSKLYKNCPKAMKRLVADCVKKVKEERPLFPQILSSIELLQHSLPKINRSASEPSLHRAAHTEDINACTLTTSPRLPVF
T8 sequence (P53778 whole entry): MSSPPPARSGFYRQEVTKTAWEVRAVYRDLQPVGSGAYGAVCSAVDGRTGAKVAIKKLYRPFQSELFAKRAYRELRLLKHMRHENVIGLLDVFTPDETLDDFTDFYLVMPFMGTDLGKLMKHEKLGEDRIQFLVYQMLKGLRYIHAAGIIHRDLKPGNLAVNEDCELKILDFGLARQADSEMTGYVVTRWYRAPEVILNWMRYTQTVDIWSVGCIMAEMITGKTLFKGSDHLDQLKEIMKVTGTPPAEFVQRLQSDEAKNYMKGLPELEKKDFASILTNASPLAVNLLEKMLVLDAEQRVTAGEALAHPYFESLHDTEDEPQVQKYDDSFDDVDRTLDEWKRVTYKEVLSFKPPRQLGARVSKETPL
T15 sequence (Q13177 whole entry): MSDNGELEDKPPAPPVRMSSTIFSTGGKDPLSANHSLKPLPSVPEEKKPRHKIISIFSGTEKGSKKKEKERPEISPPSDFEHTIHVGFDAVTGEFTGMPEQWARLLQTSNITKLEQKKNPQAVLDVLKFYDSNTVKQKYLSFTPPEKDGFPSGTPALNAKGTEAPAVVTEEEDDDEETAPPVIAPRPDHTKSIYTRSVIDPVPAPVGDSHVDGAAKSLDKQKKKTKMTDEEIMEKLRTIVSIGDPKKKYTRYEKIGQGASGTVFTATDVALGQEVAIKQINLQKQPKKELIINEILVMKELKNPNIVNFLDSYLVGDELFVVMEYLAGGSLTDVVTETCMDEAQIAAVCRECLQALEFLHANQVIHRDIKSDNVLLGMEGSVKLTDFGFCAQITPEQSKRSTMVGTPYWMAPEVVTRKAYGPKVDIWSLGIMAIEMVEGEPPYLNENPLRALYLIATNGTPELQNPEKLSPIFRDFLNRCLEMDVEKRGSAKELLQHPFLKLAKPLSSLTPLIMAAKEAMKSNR
T14 sequence (P08069 31-1367): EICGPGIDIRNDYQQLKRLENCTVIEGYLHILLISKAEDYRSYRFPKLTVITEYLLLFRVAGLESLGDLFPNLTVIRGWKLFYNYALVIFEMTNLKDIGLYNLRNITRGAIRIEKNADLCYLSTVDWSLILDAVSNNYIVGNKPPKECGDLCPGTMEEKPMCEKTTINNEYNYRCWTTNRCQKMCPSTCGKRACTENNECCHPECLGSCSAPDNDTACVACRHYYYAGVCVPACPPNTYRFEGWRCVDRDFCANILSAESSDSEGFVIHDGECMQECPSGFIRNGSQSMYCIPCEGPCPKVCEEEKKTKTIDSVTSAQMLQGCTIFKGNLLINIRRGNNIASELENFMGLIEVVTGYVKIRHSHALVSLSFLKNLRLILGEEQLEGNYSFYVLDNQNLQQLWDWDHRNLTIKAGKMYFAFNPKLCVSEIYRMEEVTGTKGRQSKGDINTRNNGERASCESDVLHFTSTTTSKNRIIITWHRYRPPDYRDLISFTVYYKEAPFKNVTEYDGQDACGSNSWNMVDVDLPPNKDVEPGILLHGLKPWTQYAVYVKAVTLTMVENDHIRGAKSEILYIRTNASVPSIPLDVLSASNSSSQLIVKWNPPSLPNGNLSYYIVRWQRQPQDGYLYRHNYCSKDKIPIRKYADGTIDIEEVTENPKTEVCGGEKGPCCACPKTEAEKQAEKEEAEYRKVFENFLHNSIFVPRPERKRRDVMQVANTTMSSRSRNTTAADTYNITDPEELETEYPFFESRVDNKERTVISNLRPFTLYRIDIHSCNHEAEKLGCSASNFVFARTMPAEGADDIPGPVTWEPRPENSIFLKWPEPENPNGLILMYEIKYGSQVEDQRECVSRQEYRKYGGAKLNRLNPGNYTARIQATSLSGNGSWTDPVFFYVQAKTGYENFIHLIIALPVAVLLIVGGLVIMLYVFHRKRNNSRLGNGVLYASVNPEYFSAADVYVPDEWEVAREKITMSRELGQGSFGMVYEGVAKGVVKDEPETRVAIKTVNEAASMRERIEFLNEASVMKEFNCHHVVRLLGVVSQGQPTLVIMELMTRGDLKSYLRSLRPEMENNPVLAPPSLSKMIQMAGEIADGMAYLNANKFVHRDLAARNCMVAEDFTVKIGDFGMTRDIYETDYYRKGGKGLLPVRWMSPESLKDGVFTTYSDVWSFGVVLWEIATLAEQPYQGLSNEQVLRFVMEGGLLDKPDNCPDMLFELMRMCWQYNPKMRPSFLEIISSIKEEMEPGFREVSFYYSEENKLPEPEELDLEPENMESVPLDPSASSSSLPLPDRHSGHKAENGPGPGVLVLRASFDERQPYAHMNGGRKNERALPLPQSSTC
T13 sequence (Q15303 26-1308): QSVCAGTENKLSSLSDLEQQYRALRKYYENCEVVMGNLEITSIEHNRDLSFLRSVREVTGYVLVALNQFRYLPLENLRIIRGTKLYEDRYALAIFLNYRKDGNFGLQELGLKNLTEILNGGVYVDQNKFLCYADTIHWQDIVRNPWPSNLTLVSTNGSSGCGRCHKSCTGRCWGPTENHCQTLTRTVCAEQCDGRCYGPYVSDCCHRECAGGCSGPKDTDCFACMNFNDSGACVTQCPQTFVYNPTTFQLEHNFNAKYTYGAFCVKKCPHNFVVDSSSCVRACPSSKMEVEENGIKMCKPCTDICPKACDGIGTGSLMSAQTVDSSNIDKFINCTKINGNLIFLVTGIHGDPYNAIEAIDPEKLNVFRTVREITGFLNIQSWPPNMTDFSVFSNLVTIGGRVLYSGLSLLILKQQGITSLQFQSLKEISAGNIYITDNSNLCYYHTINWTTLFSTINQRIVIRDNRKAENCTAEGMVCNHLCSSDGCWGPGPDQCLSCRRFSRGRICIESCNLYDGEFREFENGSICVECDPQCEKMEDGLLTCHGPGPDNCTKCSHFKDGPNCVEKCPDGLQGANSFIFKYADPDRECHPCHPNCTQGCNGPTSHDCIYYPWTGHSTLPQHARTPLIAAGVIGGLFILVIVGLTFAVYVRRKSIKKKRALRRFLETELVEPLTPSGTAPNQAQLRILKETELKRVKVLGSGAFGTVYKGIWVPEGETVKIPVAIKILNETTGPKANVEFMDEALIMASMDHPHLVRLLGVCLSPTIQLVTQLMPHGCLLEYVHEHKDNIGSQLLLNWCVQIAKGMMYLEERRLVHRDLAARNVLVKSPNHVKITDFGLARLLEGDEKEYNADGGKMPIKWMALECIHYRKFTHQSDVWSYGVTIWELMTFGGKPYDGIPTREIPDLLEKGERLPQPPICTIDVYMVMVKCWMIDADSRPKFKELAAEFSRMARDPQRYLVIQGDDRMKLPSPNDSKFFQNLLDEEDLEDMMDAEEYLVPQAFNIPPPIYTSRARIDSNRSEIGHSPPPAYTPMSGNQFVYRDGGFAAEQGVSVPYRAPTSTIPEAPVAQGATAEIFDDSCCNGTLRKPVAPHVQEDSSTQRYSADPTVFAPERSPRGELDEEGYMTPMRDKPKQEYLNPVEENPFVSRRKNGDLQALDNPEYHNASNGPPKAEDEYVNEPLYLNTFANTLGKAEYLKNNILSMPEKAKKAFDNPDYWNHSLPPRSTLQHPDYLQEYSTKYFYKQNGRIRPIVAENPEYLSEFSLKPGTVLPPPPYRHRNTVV

Take `CC(C)(C)c1cc(NC(=O)Nc2ccc(Oc3ncnc4[nH]ncc34)c(F)c2)no1` [SKLB-677, 1-(4-(1H-pyrazolo[3,4-d]pyrimidin-4-yloxy)-3-fluorophenyl)-3-(5-tert-butylisoxazol-3-yl)urea]: the remaining binding at 10 µM in [1] is 11%; in assay [2] it was 13%; in assay [3], 5.8%; in assay [4], 5.2%; on AXL, 3.8%; on CDK11 it was 0.1%. Further, the remaining binding at 10 µM on LATS2 was 26%; on LCK, 0.3%; at p38-gamma, 3.7%; at RAF1, 3.5%; on RIPK4, 0.85%. The negative logarithm of the Kd (pKd) at CAMK4, at CHEK1, on ERBB4, on ERK, on ERN1 and at IGF1R was under 5.00 each time. Further, at PAK2, the negative-log Kd (pKd) was under 5.00.

Usually pKd stands for the negative decadic logarithm of the Kd, by convention in mol/L.
